Measured values: patent publication US4035507A, “Novel, transient pro-drug forms of L-DOPA to treat Parkinson's disease” (Interx Research Corporation, priority 1976, dated 1977)

Assays:
[1] = Blood concentration of L-DOPA following oral administration of L-DOPA or an L-DOPA derivative to Beagle dogs; conditions: three Beagle dogs; for L-DOPA at the peak / area under the curve / time for reaching the peak: L-DOPA in blood after oral administration; for [L-DOPA] (μg/ml) at time (hours) 0.5 / [L-DOPA] (μg/ml) at time (hours) 1.0 / [L-DOPA] (μg/ml) at time (hours) 1.5 / [L-DOPA] (μg/ml) at time (hours) 2.0 / [L-DOPA] (μg/ml) at time (hours) 3.0 / [L-DOPA] (μg/ml) at time (hours) 4.0 / [L-DOPA] (μg/ml) at time (hours) 6.0: blood; for [L-DOPA] (μg/ml) at time (hours) 0.5: 0.5 hours after oral administration of 0.1 of L-DOPA or equivalent amount of derivative; for [L-DOPA] (μg/ml) at time (hours) 1.0: 1.0 hours after oral administration of 0.1 of L-DOPA or equivalent amount of derivative; for [L-DOPA] (μg/ml) at time (hours) 1.5: 1.5 hours after oral administration of 0.1 of L-DOPA or equivalent amount of derivative; for [L-DOPA] (μg/ml) at time (hours) 2.0: 2.0 hours after oral administration of 0.1 of L-DOPA or equivalent amount of derivative; for [L-DOPA] (μg/ml) at time (hours) 3.0: 3.0 hours after oral administration of 0.1 of L-DOPA or equivalent amount of derivative; for [L-DOPA] (μg/ml) at time (hours) 4.0: 4.0 hours after oral administration of 0.1 of L-DOPA or equivalent amount of derivative; for [L-DOPA] (μg/ml) at time (hours) 6.0: 6.0 hours after oral administration of 0.1 of L-DOPA or equivalent amount of derivative;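 on all read-outs here: dogs of both sexes, 12 to 14 Kg body weight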
Description: Reference to (a) refers to the values obtained from three Beagle dogs for each compound tested, the Beagle dogs being of both sexes and weighing from 12 to 14 Kg.
Reference to [L-DOPA] refers to the concentration of L-DOPA

[2] = Coutinaho, Spiegel et al. (1971); Weiss and Rossi (1963); cited from earlier work

Row | Structure (SMILES) | L-DOPA at the peak [1] | area under the curve [1] | time for reaching the peak [1] | [L-DOPA] (μg/ml) at time (hours) 0.5 [1] | [L-DOPA] (μg/ml) at time (hours) 1.0 [1] | [L-DOPA] (μg/ml) at time (hours) 1.5 [1] | [L-DOPA] (μg/ml) at time (hours) 2.0 [1] | [L-DOPA] (μg/ml) at time (hours) 3.0 [1] | [L-DOPA] (μg/ml) at time (hours) 4.0 [1] | [L-DOPA] (μg/ml) at time (hours) 6.0 [1] | half-life of L-DOPA in the bloodstream [2]
1 | CC(=O)Oc1ccc(C[C@H](N)C(=O)OCc2ccccc2)cc1OC(C)=O.Cl [Compound (II), 3,4-diacetyloxy-L-phenylalanine-benzyl ester hydrochloride] | 2.3 µg/mL | 5.96 µg/h/mL | 0.5 h | 1.71 µg/mL | 1.30 µg/mL | 1.08 µg/mL | 0.55 µg/mL | 0.20 µg/mL | 0.14 µg/mL | 0.05 µg/mL | –
2 | COC(=O)[C@H](Cc1ccc(OC(C)=O)c(OC(C)=O)c1)NC(=O)CN.Cl [Compound (IV), glycyl-3,4-diacetyloxy-L-phenylalanine-methyl ester hydrochloride] | 1.7 µg/mL | 3.38 µg/h/mL | 0.80 h | 0.79 µg/mL | 1.17 µg/mL | 0.51 µg/mL | 0.33 µg/mL | 0.08 µg/mL | 0.02 µg/mL | 0 µg/mL | –
3 | N[C@@H](Cc1ccc(O)c(O)c1)C(=O)O [(0), 3,4-dihydroxy-L-phenylalanine, reference compound] | 0.9 µg/mL | 2.6 µg/h/mL | 1.8 h | 0.14 µg/mL | 0.64 µg/mL | – | 0.87 µg/mL | – | 0.22 µg/mL | 0.11 µg/mL | approximately 45 minutes

Continued, in another order:

Row | L-DOPA at the peak [1] | area under the curve [1] | time for reaching the peak [1] | [L-DOPA] (μg/ml) at time (hours) 0.5 [1] | [L-DOPA] (μg/ml) at time (hours) 1.0 [1] | [L-DOPA] (μg/ml) at time (hours) 1.5 [1] | [L-DOPA] (μg/ml) at time (hours) 2.0 [1] | [L-DOPA] (μg/ml) at time (hours) 3.0 [1] | [L-DOPA] (μg/ml) at time (hours) 4.0 [1] | [L-DOPA] (μg/ml) at time (hours) 6.0 [1] | Structure (SMILES) | half-life of L-DOPA in the bloodstream [2]
4 | 1.8 µg/mL | 5.30 µg/h/mL | 1.2 h | 0.26 µg/mL | 1.30 µg/mL | 1.62 µg/mL | 0.80 µg/mL | 0.23 µg/mL | 0.03 µg/mL | 0 µg/mL | CC(=O)Oc1ccc(C[C@H](N)C(=O)NCC(=O)O)cc1OC(C)=O.Cl [Compound (V), 3,4-diacetyloxy-L-phenylalanyl-glycine hydrochloride] | –
5 | 2.4 µg/mL | 7.25 µg/h/mL | 0.75 h | 1.34 µg/mL | 1.95 µg/mL | 1.21 µg/mL | 0.43 µg/mL | 0.27 µg/mL | 0.13 µg/mL | 0.02 µg/mL | CC(=O)Oc1ccc(C[C@H](NC(=O)CN)C(=O)O)cc1OC(C)=O.Cl [Compound (III), glycyl-3,4-diacetyloxy-L-phenylalanine-hydrochloride] | –
6 | 1.6 µg/mL | – | – | – | – | – | 0.39 µg/mL | 0.12 µg/mL | – | – | COC(=O)[C@@H](N)Cc1ccc(OC(C)=O)c(OC(C)=O)c1.Cl [Compound (I), 3,4-diacetyloxy-L-phenylalanine-methyl ester, HCl] | –
